What was measured:
[1] = target: T1, Eg5 motor domain construct Eg5-367H (Homo sapiens, UniProt P52732); assay: Activity of Eg5 inhibitors in pure protein assay (microtubule-stimulated ATP hydrolysis, malachite green phosphate detection); type: biochemical; conditions: microtubule-stimulated ATP hydrolysis by Eg5-367H, 25 degrees, 2 hours
T1 construct: the Eg5 motor domain construct Eg5-367H; His tag (read from the 'H' in the construct name; not spelled out for this construct)
T1 sequence (P52732 18-359 limits assumed): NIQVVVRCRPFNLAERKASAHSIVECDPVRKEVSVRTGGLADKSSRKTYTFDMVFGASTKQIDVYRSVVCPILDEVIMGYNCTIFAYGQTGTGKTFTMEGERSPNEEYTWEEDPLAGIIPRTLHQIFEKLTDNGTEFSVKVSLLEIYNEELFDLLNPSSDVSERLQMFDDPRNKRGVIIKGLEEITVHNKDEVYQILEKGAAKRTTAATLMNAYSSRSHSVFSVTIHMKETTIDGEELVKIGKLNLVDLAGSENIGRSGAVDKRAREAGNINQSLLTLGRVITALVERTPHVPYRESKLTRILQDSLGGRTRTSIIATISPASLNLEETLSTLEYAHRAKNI
Description: We utilized a colorimetric phosphate detection assay (Funk, 2004) to measure microtubule-stimulated ATP hydrolysis by the Eg5 motor domain construct Eg5-367H (Maliga, 2002) as a function of drug concentration. Stocks solutions of each compound were prepared by serial dilution into DMSO and 0.1 microliters was added by pin transfer into KC25 buffer (20 mM PIPES-KOH, pH 6.9, 25 mM KCl, 2 mM MgC12) supplemented with 1 mM ATP-KOH, pH 6.9. KC25 supplemented with 10 micromolar taxol, 50 nanomolar Eg5-367H, and 1 micromolar taxol-polymerized microtubules was then added and the reaction incubated at 25 degrees for 2 hours. Malachite green assay solution (7% (w/v) perchloric acid, 0.0075% (w/v) malachite green oxalate, 0.2% (w/v) sodium molybdate dihydrate) was added to each reaction and the optical absorbance at 640 nm (640) was measured after a 30 minute incubation using a Wallac II automated plate reader. A640 as a function of! drug concentration (C) was fit to the equation A640=A0+B/(1+C/IC50) using Kaleidegraph 3.0, A0 is the basal A640, B is the maximum increase in A640, and IC50 is the drug concentration that inhibits half the Eg5 activity.

Hela cells = assay: cells; conditions: Homo sapiens, 20 h
Description: Hela cells were grown (Maliga, et. al. 2001) to 20% confluence in 384-well, clear-bottomed, black-walled NUNC plates and serial dilutions of prospective Eg5 inhibitors were added by pin transfer, as above [0277], incubated at 37° C. for 20 hours, fixed with TBS-0.1% Triton X100 supplemented with 4% formaldehyde, and stained stained for DNA, phosphorylated Ser10-Histone 3, and alpha-tubulin. Each drug concentration was inspected for the characteristic monoaster phenotype: condensed phospho-S10 positive chromosomes arranged in a rosette pattern around a circularly symmetric array of microtubules, and the absence of bi-polar mitotic spindles.

Structure (SMILES)	IC50 [1] [µM]	IC50 (Hela cells) [µM]
O=C1OCCC2=C1C(c1cccc(O)c1)NC(=S)N2 (stereo not shown) [Entry 5]	0.5	30
O=C1OCC2=C1C(c1cccc(O)c1)NC(=S)N2 (stereo not shown) [Entry 8]	20	300
O=C1NCC2=C1C(c1cccc(O)c1)NC(=S)N2 (stereo not shown) [Entry 9]	12	> 300
CCOC(=O)C1=C(CN)NC(=S)NC1c1cccc(O)c1 (stereo not shown) [Entry 6]	12	200
CCOC(=O)C1=C(CO)NC(=S)NC1c1cccc(O)c1 (stereo not shown) [Entry 7]	30	300
CCOC(=O)C1=C(CCN)NC(=S)NC1c1cccc(O)c1 (stereo not shown) [Entry 2]	> 30	> 300
CCOC(=O)C1=C(CCNC(=O)OC(C)(C)C)NC(=S)NC1c1cccc(O)c1 (stereo not shown) [Entry 3]	> 30	> 300
O=C1NCCC2=C1C(c1cccc(O)c1)NC(=S)N2 (stereo not shown) [Entry 1]	1.5	50
CCOC(=O)C1=C(C)NC(=S)NC1c1cccc(O)c1 (stereo not shown) [Monastrol, reference compound]	12	300
CCOC(=O)C1=C(C)NC(=S)NC1c1cccc(N)c1 (stereo not shown) [Entry 10]	> 30	> 300
CCOC(=O)C1=C(CCO[Si](C(C)C)(C(C)C)C(C)C)NC(=S)NC1c1cccc(O)c1 (stereo not shown) [Entry 4]	> 30	> 300
